Experimental data published in US20130210034A1, “COMPLEX PHOSPHOPROTEIN ACTIVATION PROFILES” (BECKMAN COULTER, INC., priority 2005, published 2013).

B1: FMS-Like Tyrosine Kinase 3 (FLT-3) ligand (protein, UniProt P49771 27-235, looked up)
Fms-related tyrosine kinase 3 …: TQDCSFQHSPISSDFAVKIRELSDYLLQDYPVTVASNLQDEELCGGLWRLVLAQRWMERLKTVAGSKMQGLLERVNTEIHFVTKCAFQPPPSCLRFVQTNISRLLQETSEQLVALKPWITRQNFSRCLELQCQPDSSTLPPPWSPRPLEATAPTAPQPPLLLLLLLPVGLLLLAAAWCLHWQRTRRRTPRPGEQVPPVPSPQDLLLVEH

Key:
pAKT = test: Cytokine-stimulated phosphorylation in AML cell populations (BM or PB of AML patients); type: cell-based, human
Experimental: (§1) To assess the signal transduction response after growth factor simulation, a series comprising two sets of tubes including about 3×10^6 cells/100 μL were incubated at 37° C. for 30 minutes. After this pre-incubation period, tubes with then processes with either a stimulant or inhibitor. […] To examine the effects of protein phosphorylation inhibition, tubes were incubated with an inhibitor cocktail comprising 100 μM/100 μL UO126, 1 μM/100 μL LY294002, and 1 μM/100 μL rapamycin. One unstimulated tube receiving no stimulant or inhibitor was processed to assess basal levels of phospho-protein expression. After stimulation the cells were immediately fixed in 10% formaldehyde solution at 37° C. Pre-labeling with CD13, CD16 and CD64 antibodies was carried out 20 minutes prior to formaldehyde fixation. After fixation, one set of tubes was permeabilized without methanol for pAKT, pERK and pS6 staining and the other for 80% methanol permeabilized for pSTAT3 and pSTAT5 staining. After permeablization, the cells were washed in PBS with 2% BSA and blocked by re-suspended in 75 μL of PBS comprising 25% heat inactivated normal mouse serum, 25% normal rabbit serum. To stain cells with fluorescent conjugated monoclonal antibodies, samples were incubated on ice for 45 minutes in 100 μL of an antibody staining solution including either: 1) CD15-Pacific Orange, CD34-Phycoerythrin-Texas Red, CD117-Phycoerythrin-Cyanin 5.5, CD45-Allophycocyanin-Alexa Fluor 750 (or CD45-Pacific Orange, in which case CD15-Pacific Orange was omitted), pS6-Pacific Blue, pERK-Alexa Fluor 488 and pAKT-Alexa Fluor 647 or 2) CD15-Pacific Orange, CD34-Phycoerythrin-Texas Red, CD117-Phycoerythrin-Cyanin 5.5, CD45-Allophycocyanin-Alexa Fluor 750 or CD45-Pacific Blue, pSTAT3-Alexa Fluor 488 and pSTAT5-Phycoerythrin. The stained cells were washed twice with ice cold PBS containing 2% BSA and centrifuged at 800 g for 6 minutes at 4° C. The supernatant was discarded and cells re-suspended in 250 μL of chilled wash buffer for data acquisition. Stained cells were examined using either GALIOS flow cytometer (Beckman Coulter) or CYAN ADP (Beckman Coulter) equipped with 488 nm, 405 nm and 635 nm lasers to detect the degree of fluorescence. Data were analyzed using FCS Express (De Novo Software, CA) analysis software.
(§2) Specific phosphoprotein expression of pERK, pS6, pAKT, pSTAT5, and pSTAT3 was examined in seven discrete phenotypically defined populations based on 7-color immunophenotyping (FIG. 1). The percent of responding (phosphorprotein positive) cells for each of these populations was determined from individual single parameter histograms based on a fixed integration region set on the inhibitor treated control at about 3% positives.
(§3) Using normal BM signaling profiles of Example 1 as comparison, analysis of 14 AML samples was carried out to identify differences in signaling responses. White blood cells from BM or peripheral blood (PB) samples were obtained from 14 diagnosed AML patients undergoing routine clinical flow cytometry analysis using IRB approved protocols. The AML patients included newly diagnosed AML, AMLs arising in a background of MDS, therapy related AMLs and previously diagnosed AML post therapy. The median age of the patients at diagnosis was 51 years (range: 29-75 years) and represented 5 female and 9 male patients. The median white blood cell was 6.4 million/mL (range: 0.9-106 M/mL) and the BM morphologic blast count was an average of 46% (range: 0%-90%).
(§4) Experiments performed to assess the signal transduction response after growth factor simulation were performed as described for Example 1.

pERK = test: as above; type: cell-based, human
Experimental: as §1, §2, §3, §4

Molecule | pAKT, AML Sample (pAKT; patient AML5 (Example 3)) | pAKT activation kinetics compared to normal (pAKT; patient AML7 (Example 3), abnormal blasts) | pAKT, AML Sample (pAKT; patient AML11 (Example 3)) | pERK, AML Sample (pERK; patient AML2 (Example 3)) | pERK, AML Sample (first AML5 line) (pERK; patient AML5 (Example 3), normal value of this line is an S/N ratio) | pERK, AML Sample (pERK; patient AML6 (Example 3)) | pERK, AML Sample (pERK; patient AML11 (Example 3)) | pERK, AML Sample (pERK; patient AML12 (Example 3)) | pERK, AML Sample (pERK; patient AML13 (Example 3)) | pERK, AML Sample (pERK; patient AML1 (Example 3)) | pERK, AML Sample (pERK; patient AML5 (Example 3)) | pERK, AML Sample (pERK; patient AML9 (Example 3))
Stem Cell Factor [SCF] | typical upregulation of pAKT | significant delayed activation, and prolonged expression | 3.2 | 4.8 | 3.4 | 3.0 | 3.3 | 3.3 | 4.8 |  |  | 
B1 | 8.1 |  |  |  |  |  |  |  |  | 10.3 | 8.1 | 12.0
